In ChEMBL document CHEMBL4825663 (J Med Chem, 2021):
Values after ≈ are worked out from the molar mass of the structure shown.

How the values were obtained:
MES-SA/Dx5 = assay: Selectivity index, ratio of EC50 for inhibition of P-gp (unknown origin) expressed in MES-SA/DX5 cells assessed as increase in paclitaxel-induced cytotoxicity in absence of compound to EC50 for inhibition of P-gp (unknown origin) expressed in MES-SA/DX5 cells assessed as increase in paclitaxel-induced cytotoxicity in presence of compound; type: cell-based; details: Homo sapiens
[1] = Aqueous solubility of compound at neutral pH; type: physicochemical; details: aqueous solution
[2] = Apparent permeability from apical to basolateral side in MDCK-II cells after 120 mins by LC-MS/MS analysis; type: ADME, cell-based, Canis lupus familiaris; details: dog
[3] = target: T1, Broad substrate specificity ATP-binding cassette transporter ABCG2 (Homo sapiens, UniProt Q9UNQ0); assay: Inhibition of sulfasalazine-stimulated BCRP ATP ase activity (unknown origin)
T1 sequence (Q9UNQ0 whole entry): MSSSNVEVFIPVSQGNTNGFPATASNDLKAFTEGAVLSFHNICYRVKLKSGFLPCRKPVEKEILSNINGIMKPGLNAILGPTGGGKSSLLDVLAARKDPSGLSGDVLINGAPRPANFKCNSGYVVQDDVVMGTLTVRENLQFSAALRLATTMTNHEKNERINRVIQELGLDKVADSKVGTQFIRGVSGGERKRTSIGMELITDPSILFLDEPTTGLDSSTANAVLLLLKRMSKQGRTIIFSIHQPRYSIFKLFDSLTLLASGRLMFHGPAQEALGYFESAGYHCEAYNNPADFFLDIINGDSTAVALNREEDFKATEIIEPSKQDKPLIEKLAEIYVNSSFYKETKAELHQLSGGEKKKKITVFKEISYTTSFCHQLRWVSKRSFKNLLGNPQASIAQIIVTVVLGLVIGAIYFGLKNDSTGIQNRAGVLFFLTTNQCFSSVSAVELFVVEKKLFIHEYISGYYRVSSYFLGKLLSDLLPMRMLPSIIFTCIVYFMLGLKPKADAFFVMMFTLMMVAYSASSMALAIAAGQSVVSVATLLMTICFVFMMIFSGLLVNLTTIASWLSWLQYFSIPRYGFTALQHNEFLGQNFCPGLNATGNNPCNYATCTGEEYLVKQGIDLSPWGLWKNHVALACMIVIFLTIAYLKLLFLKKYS

[4] = target: ATP-dependent translocase ABCB1 (Homo sapiens, UniProt P08183); assay: Inhibition of paclitaxel stimulated- P-gp ATPase activity (unknown origin)
[5] = Aqueous solubility of compound at pH 5.5; type: physicochemical; details: aqueous solution

ATP-dependent translocase ABCB1, sequence (P08183 whole entry): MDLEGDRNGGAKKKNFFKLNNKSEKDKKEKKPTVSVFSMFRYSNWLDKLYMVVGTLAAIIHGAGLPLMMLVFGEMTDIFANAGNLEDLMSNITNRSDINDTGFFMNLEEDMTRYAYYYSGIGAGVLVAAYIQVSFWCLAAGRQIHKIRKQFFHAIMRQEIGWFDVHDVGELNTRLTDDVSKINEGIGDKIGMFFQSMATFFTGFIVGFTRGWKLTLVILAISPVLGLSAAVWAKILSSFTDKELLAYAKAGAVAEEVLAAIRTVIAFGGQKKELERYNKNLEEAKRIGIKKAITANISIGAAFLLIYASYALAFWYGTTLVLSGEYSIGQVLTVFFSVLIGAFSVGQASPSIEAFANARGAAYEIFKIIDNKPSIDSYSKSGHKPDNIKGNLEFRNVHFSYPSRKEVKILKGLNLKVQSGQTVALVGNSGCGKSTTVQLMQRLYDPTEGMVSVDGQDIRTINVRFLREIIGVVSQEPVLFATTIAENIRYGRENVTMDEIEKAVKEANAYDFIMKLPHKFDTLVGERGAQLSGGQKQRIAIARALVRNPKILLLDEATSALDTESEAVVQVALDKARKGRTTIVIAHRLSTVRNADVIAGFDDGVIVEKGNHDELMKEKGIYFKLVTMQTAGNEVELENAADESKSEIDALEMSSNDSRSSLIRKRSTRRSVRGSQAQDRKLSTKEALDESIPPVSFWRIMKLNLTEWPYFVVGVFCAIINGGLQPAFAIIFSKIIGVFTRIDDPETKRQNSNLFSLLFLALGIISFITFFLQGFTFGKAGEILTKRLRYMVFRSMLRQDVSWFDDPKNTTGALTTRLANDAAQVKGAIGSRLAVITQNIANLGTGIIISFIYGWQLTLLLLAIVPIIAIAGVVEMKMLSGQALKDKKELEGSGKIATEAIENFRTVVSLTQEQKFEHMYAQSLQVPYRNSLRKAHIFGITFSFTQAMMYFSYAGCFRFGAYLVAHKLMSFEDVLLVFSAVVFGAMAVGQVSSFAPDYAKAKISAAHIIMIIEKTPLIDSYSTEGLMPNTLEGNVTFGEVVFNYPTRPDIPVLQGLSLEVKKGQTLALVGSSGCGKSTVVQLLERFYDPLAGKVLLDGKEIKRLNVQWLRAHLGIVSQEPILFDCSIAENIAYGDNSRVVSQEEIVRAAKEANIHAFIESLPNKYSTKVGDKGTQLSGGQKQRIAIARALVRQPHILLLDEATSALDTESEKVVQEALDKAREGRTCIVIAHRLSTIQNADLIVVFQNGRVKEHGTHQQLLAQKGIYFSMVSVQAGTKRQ

Structure (SMILES) | Ratio EC50 (MES-SA/Dx5) | other results
COc1cc2c(cc1OC)CN(CCc1ccc(-n3nnc(-c4cc(OC)c(OC)cc4NC(=O)c4ccc5ccccc5c4)n3)cc1)CC2 | 2.6 | 
COc1cc2c(cc1OC)CN(CCc1ccc(-n3nnc(-c4cc(OC)c(OC)cc4NC(=O)c4cncc5ccccc45)n3)cc1)CC2 | 3.3 | 
COc1cc2c(cc1OC)CN(CCc1ccc(-n3nnc(-c4cc(OC)c(OC)cc4NC(=O)c4cnc5ccccc5c4)n3)cc1)CC2 | 20.3 | 
COc1cc2c(cc1OC)CN(CCc1ccc(-n3nnc(-c4cc(OC)c(OC)cc4NC(=O)c4coc5ccccc5c4=O)n3)cc1)CC2 | 2.1 | 
COc1cc2c(cc1OC)CN(CCc1ccc(-n3nnc(-c4cc(OC)c(OC)cc4NC(=O)c4cnccn4)n3)cc1)CC2 | 3 | 
COc1cc2c(cc1OC)CN(CCc1ccc(-n3nnc(-c4cc(OC)c(OC)cc4NC(=O)c4cc5ccccc5cn4)n3)cc1)CC2 | 3.5 | 
COc1cc2c(cc1OC)CN(CCc1ccc(-n3nnc(-c4cc(OC)c(OC)cc4NC(=O)c4cccnc4)n3)cc1)CC2 | 3 | 
COc1cc2c(cc1OC)CN(CCc1ccc(-n3nnc(-c4cc(OC)c(OC)cc4NC(=O)c4nccc5ccccc45)n3)cc1)CC2 | 1.8 | 
COc1cc2c(cc1OC)CN(CCc1ccc(-n3nnc(-c4cc(OC)c(OC)cc4NC(=O)c4cc(=O)c5c(OC)cccc5o4)n3)cc1)CC2 | 49.9 | 
COc1cc2c(cc1OC)CN(CCc1ccc(NC(=O)c3cccc4c(=O)c5cccc(OC)c5[nH]c34)cc1)CC2 |  | solubility [1]: 0.123 µg/mL (≈ 0.218 µM); Papp A→B at 2 h [2]: 0.1 ×10⁻⁶ cm/s
COc1cc2c(cc1OC)CN(CCc1ccc(NC(=O)c3cc(OC)c(OC)cc3NC(=O)c3cnc4ccccc4c3)cc1)CC2 |  | IC50 [3]: 183 nM; IC50 [4]: 32.7 nM; solubility [5]: 2500 µg/mL (≈ 3870 µM); Papp A→B at 2 h [2]: 1.1 ×10⁻⁶ cm/s
COc1cc2c(cc1OC)CN(CCc1ccc(-n3nnc(-c4cc(OC)c(OC)cc4NC(=O)c4cc(=O)c5cc(C)ccc5o4)n3)cc1)CC2 | 73.4 | 
COc1cc2c(cc1OC)CN(CCc1ccc(-n3nnc(-c4cc(OC)c(OC)cc4NC(=O)c4cccc5cccnc45)n3)cc1)CC2 | 4.3 | 
COc1cc2c(cc1OC)CN(CCc1ccc(-n3nnc(-c4cc(OC)c(OC)cc4NC(=O)c4ccc(F)c(F)c4)n3)cc1)CC2 | 3.7 | 
O[C@@H](COc1cccc2ncccc12)CN1CCN([C@@H]2c3ccccc3[C@@H]3[C@H](c4ccccc42)C3(F)F)CC1 [ZOSUQUIDAR] |  | Papp A→B at 2 h [2]: 1.1 ×10⁻⁶ cm/s
COc1cc2c(cc1OC)CN(CCc1ccc(-n3nnc(-c4cc(OC)c(OC)cc4NC(=O)c4ccccc4)n3)cc1)CC2 | 3.4 | 
COc1cc2c(cc1OC)CN(CCc1ccc(-n3nnc(-c4cc(OC)c(OC)cc4NC(=O)c4ccsc4)n3)cc1)CC2 | 4.5 | 
COc1cc2c(cc1OC)CN(CCc1ccc(-n3nnc(-c4cc(OC)c(OC)cc4NC(=O)c4cc(=O)c5cc(F)ccc5o4)n3)cc1)CC2 | 39.3 | 
COc1cc2c(cc1OC)CN(CCc1ccc(-n3nnc(-c4cc(OC)c(OC)cc4NC(=O)c4ccoc4)n3)cc1)CC2 | 3.5 | 
COc1cc2c(cc1OC)CN(CCc1ccc(-n3nnc(-c4cc(OC)c(OC)cc4NC(=O)c4ccc5ccccc5n4)n3)cc1)CC2 | 2.7 | 
